For 21 molecules, IC50 results are on record in BindingDB's records for doi:10.1021/jm960305h (National Institute of Diabetes and Digestive and Kidney …, 1997).

The first assay is described as follows: Binding affinity against sigma receptor using radioligand ([3H](+)-pentazocine) binding assay.
For the molecule `c1ccc(C(OCCN2CCN(CCOC(c3ccccc3)c3ccccc3)CC2)c2ccccc2)cc1` [1,4-Bis-(2-benzhydryloxy-ethyl)-piperazine], the IC50 was above 10000 nM.

`c1ccc(CCCN2CCCN(CCOC(c3ccccc3)c3ccccc3)CC2)cc1` [1-(2-Benzhydryloxy-ethyl)-4-(3-phenyl-propyl)-[1,4]diazepane]: the IC50 is 26 nM.

Take `c1ccc(CCCN2CCCCN(CCOC(c3ccccc3)c3ccccc3)CC2)cc1` [1-(2-Benzhydryloxy-ethyl)-4-(3-phenyl-propyl)-[1,4]diazocane]: the IC50 is 180 nM.

On to `c1ccc(C(OCCN2CCNCC2)c2ccccc2)cc1` [1-(2-Benzhydryloxy-ethyl)-piperazine], for which the IC50 came out at 1480 nM. This IC50 lies about 8.2-fold higher than the previous one.

The molecule `Fc1ccc(C(OCCN2CCNCC2)c2ccc(F)cc2)cc1` [1-{2-[Bis-(4-fluoro-phenyl)-methoxy]-ethyl}-piperazine] returned an IC50 of 965 nM. This IC50 is about 1.5-fold lower than that of the molecule before.

Take `c1ccc(CCCN2CCCCC(NCCOC(c3ccccc3)c3ccccc3)C2)cc1` (stereo unspecified) [(2-Benzhydryloxy-ethyl)-[1-(3-phenyl-propyl)-azepan-3-yl]-amine]: the IC50 was 78 nM. This IC50 lies about 12-fold lower than the previous one.

In the case of `C[C@@H]1CN(CCOC(c2ccccc2)c2ccccc2)[C@@H](C)CN1CCOC(c1ccccc1)c1ccccc1` [(2S,5R)-1,4-Bis-(2-benzhydryloxy-ethyl)-2,5-dimethyl-piperazine], the IC50 amounted to 4000 nM.

Molecule `C[C@@H]1CN(CCOC(c2ccc(F)cc2)c2ccc(F)cc2)[C@@H](C)CN1CCOC(c1ccc(F)cc1)c1ccc(F)cc1` [(2S,5R)-1,4-Bis-{2-[bis-(4-fluoro-phenyl)-methoxy]-ethyl}-2,5-dimethyl-piperazine] had an IC50 of 3640 nM.

The molecule `C[C@@H]1CN(CCOC(c2ccccc2)c2ccccc2)[C@@H](C)CN1` [(2S,5R)-1-(2-Benzhydryloxy-ethyl)-2,5-dimethyl-piperazine] came in with an IC50 of 67 nM. Compared with the last molecule, the IC50 is about 54-fold lower.

`C[C@@H]1CN(CCOC(c2ccc(F)cc2)c2ccc(F)cc2)[C@@H](C)CN1` [(2S,5R)-1-{2-[Bis-(4-fluoro-phenyl)-methoxy]-ethyl}-2,5-dimethyl-piperazine] had an IC50 of 65 nM.

`C[C@@H]1CN(CCCc2ccccc2)[C@@H](C)CN1CCCc1ccccc1` [(2S,5R)-2,5-Dimethyl-1,4-bis-(3-phenyl-propyl)-piperazine] showed an IC50 of 8.5 nM.

Molecule `NCCCCNCCOC(c1ccccc1)c1ccccc1` [N*1*-(2-Benzhydryloxy-ethyl)-butane-1,4-diamine] returned an IC50 above 10000 nM.

On to `c1ccc(CCCNCCCCNCCOC(c2ccccc2)c2ccccc2)cc1` [N-(2-Benzhydryloxy-ethyl)-N'-(3-phenyl-propyl)-butane-1,4-diamine], for which the IC50 was determined as 1050 nM.

In turn, `CN(CCCc1ccccc1)CCN(C)CCOC(c1ccccc1)c1ccccc1` [N-(2-Benzhydryloxy-ethyl)-N,N'-dimethyl-N'-(3-phenyl-propyl)-ethane-1,2-diamine] came in with an IC50 of 34 nM.

Regarding `CNCCN(C)CCOC(c1ccccc1)c1ccccc1` [N-(2-Benzhydryloxy-ethyl)-N,N'-dimethyl-ethane-1,2-diamine], the IC50 was found to be 231 nM.

As for `c1ccc(CCCNC2CCCCN(CCOC(c3ccccc3)c3ccccc3)C2)cc1` (stereo unspecified) [[1-(2-Benzhydryloxy-ethyl)-azepan-3-yl]-(3-phenyl-propyl)-amine], the IC50 worked out at 83 nM.

Assay in the next assay: as above
This is another data set of the same source.
As for `c1ccc(CCCN2CCN(CCCc3ccccc3)CC2)cc1` [1,4-Bis-(3-phenyl-propyl)-piperazine], the IC50 came out at 0.5 nM.

Molecule `Fc1ccc(C(OCCN2CCN(CCOC(c3ccc(F)cc3)c3ccc(F)cc3)CC2)c2ccc(F)cc2)cc1` [1,4-Bis-{2-[bis-(4-fluoro-phenyl)-methoxy]-ethyl}-piperazine] yielded an IC50 above 10000 nM.

`c1ccc(CCCN2CCNCC2)cc1` [1-(3-Phenyl-propyl)-piperazine]: the IC50 is 109 nM.

Molecule `C[C@@H]1CN(CCOC(c2ccccc2)c2ccccc2)[C@@H](C)CN1CCCc1ccccc1` [(2S,5R)-1-(2-Benzhydryloxy-ethyl)-2,5-dimethyl-4-(3-phenyl-propyl)-piperazine] had an IC50 of 8.6 nM.

The molecule `C[C@@H]1CN(CCCc2ccccc2)[C@@H](C)CN1` [(2S,5R)-2,5-Dimethyl-1-(3-phenyl-propyl)-piperazine] displayed a 50% inhibitory concentration (IC50) of 8.5 nM.

The term IC50 denotes the concentration that inhibits the measured activity by half. Higher therefore signals weaker potency.
